“Also recorded” adds a separate entry of the source.

Assay [1] deals with pre-miR-21. Put plainly: RT-qPCR of pre-miR-21 levels in MDA-MB-231 cells. The format is cell-based, human. Conditions: MDA-MB-231, RT-qPCR. How it is done:
Cell Culture. Cells were cultured at 37° C. and 5% CO2. MDA-MB-231 cells (HTB-26, ATCC) were cultured in RMPI 1640 medium with L-glutamine & 25 mM HEPES supplemented with 1× Antibiotic/Antimycotic solution (Corning) and 10% FBS. MCF-10A cells (CRL-10317, ATCC) were cultured in 1×DMEM/F12 50/50 with L-glutamine & 15 mM HEPES (Corning) supplemented with 20% FBS, 1× Antibiotic/Antimycotic solution, 20 ng/mL human epidermal growth factor (Pepro Tech, Inc.), 10 μg/mL insulin (Sigma-Aldrich), and […] hydrocortisone (Pfaltz & Bauer). For compound treatment, compound stocks either in DMSO or water were diluted in growth medium and added to cells for the indicated time. Plasmid DNA to overexpress pre-miR-21 in pcDNA 3.1 (Addgene 21114) or a plasmid DNA encoding the pre-miR-21 mutant (custom purchased from GenScript USA, Inc.) was transfected with jetPRIME per the manufacturer's protocol. After transfection, the medium was replaced with growth medium containing the compound of interest, prepared as described above. The RNase L-targeting siRNA or a control siRNA was transfected with Lipofectamine RNAiMAX reagent (Invitrogen) per the manufacturer's protocol.
RNA Isolation and Quantitative Real-Time PCR (RT-qPCR). After treatment, total RNA was extracted and purified by using the Zymo Quick-RNA mini prep kit per the manufacturer's protocol. Reverse Transcription (RT) for mature miRNAs as well as pri- and pre-miR-21 was completed on 200 ng of RNA by using a miScript 11 RT kit (QIAGEN) according to manufacturer's protocol. RT of mRNAs was performed by using QScript kit (Quanta Bio). An Applied Biosystems QS5 384-well PCR system was used to complete qPCR experiments using Power Sybr Green Mater Mix (Life Technologies) as described previously^6.
A general note: Real-time PCR tracks product formation cycle by cycle.

In assay [2] the target is T1, RNase L / pre-miR-21 ternary complex (Homo sapiens, UniProt Q05823).
T1 construct: endogenous in cells; host or cells: MDA-MB-231
T1 sequence (Q05823 1-741): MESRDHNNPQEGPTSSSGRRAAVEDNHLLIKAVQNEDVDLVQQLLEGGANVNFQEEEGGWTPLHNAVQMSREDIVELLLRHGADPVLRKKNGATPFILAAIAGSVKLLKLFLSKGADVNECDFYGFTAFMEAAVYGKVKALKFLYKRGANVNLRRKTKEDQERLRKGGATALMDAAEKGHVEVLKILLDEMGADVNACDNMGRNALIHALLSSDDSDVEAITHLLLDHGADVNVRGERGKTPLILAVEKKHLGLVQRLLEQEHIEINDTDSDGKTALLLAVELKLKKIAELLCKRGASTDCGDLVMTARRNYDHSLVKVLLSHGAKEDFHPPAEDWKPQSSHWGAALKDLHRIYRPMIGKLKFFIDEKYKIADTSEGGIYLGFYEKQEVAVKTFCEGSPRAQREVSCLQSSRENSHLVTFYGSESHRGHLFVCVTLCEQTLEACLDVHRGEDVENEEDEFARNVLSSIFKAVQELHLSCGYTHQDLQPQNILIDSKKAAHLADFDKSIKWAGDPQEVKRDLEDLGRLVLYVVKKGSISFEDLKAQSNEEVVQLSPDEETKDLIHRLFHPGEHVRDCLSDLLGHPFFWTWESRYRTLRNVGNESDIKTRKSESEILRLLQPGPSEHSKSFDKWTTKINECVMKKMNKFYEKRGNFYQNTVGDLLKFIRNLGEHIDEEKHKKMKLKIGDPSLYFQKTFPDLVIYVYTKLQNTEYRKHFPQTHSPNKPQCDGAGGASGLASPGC
Put plainly: RNase L immunoprecipitation. Particulars: 1 μM, MDA-MB-231. The format is cell-based. How it is done:
RNase L Immunoprecipitation. MDA-MB-231 cells were seed in 6-well plates and were treated with vehicle, 4 (1 μM) or 5 (1 μM) when the cells reached ~70% confluency. After 48 h, the cells were harvested and lysed in 100 μL of M-PER buffer containing protease inhibitor and RNaseOUT recombinant Ribonuclease Inhibitor (Invitrogen) on ice for 20 min. The lysate was centrifuged at 13,000×g for 15 min, and the supernatants were incubated with Dynabeads Protein A (Life Technologies) bound to RNase L mouse primary antibody or β-actin mouse primary antibody overnight at 4° C. After incubation, the beads were washed with 1×DPBS containing 0.02% (v/v) Tween-20, and RNA was extracted by using a miRNeasy Mini Kit (Qiagen) per the manufacturer's instructions. RT-qPCR was performed as described above. Relative RNA levels were determined by ΔΔCt method by normalizing to 18S rRNA levels. Normalized fold change was calculated as previously described^6.

Assay [3] deals with T2, FLT3 (Homo sapiens, UniProt P36888).
T2 construct: endogenous in cells; host or cells: MDA-MB-231
T2 sequence (P36888 27-993): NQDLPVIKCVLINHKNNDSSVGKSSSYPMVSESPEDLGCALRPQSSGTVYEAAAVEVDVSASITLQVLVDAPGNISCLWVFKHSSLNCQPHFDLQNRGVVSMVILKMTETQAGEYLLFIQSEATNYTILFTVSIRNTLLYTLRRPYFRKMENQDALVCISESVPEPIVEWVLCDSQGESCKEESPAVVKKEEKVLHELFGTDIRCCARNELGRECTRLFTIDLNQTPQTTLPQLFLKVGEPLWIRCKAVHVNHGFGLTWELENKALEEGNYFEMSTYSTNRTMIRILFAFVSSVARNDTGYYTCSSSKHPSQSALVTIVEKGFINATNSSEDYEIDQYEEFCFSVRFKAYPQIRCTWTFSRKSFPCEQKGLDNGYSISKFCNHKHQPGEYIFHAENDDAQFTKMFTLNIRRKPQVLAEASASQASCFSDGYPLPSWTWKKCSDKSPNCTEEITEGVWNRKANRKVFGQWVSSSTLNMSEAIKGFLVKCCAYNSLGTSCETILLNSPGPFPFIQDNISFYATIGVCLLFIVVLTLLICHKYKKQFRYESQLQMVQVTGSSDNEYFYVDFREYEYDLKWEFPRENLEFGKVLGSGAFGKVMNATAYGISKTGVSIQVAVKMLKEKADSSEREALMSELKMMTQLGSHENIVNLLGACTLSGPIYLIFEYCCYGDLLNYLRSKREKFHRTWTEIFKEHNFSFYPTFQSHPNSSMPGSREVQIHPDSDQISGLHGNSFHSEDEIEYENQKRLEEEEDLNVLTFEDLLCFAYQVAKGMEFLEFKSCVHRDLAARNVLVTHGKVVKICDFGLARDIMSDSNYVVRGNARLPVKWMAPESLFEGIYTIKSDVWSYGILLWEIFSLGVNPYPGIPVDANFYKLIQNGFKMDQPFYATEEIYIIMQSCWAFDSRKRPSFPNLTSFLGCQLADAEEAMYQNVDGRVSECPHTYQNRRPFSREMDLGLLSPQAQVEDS
Put plainly: Cellular Chem-CLIP/C-Chem-CLIP to study occupancy of an RTK. The format is cell-based. Conditions: 0.01-10 μM pre-treatment. How it is done:
Cellular Chem-CLIP/C-Chem-CLIP to Study Occupancy of an RTK. Compound treatment and isolation of cells was completed as described for cellular occupancy studies of pre-miR-21. Total protein was extracted and concentration determined as described in the “Western Blotting” section. Approximately 1 mg of total protein was used for following pull-down experiments, using a protocol adapted from a previously published method 8. Protein cross-linked to the probe were clicked to disulfide biotin azide as described above except the amount of each reagents was doubled (20 μL/sample). Then, to the mixture was added ice-cold, 4:1 mixture of methanol/chloroform (2.5 mL) followed by 1 mL of ice-cold 1×DPBS. The mixture was centrifuged at 5000×g for 10 min at 4° C. to fractionate a protein interphase between organic and aqueous layers. […] The washed protein mixture was centrifuged at 5000×g for 10 min at 4° C. to pellet the protein. The pellet was dissolved in H2O, and to this solution was added 20 μLL streptavidin beads for 30 min at room temperature. The solution was removed, and the beads were washed once with 0.2% SDS in 1×DPBS, twice with detergent-free 1×DPBS and twice with nanopure water. After these washing steps, protein was cleaved as described above. The supernatant was collected, and protein concentration was determined with Pierce Micro BCA Protein Assay kit. […] Sample preparation was completed as described above for cellular Chem-CLIP studies. Western blotting was performed on total protein (10 μg) before or after pull-down, indicated as “Input” or “Output”, as described in Western Blotting.

For assay [4], the system named is 3×2 RNA internal loop library (3×2 ILL). Put plainly: AbsorbArray 2DCS selection with Inforna fitness analysis. The format is binding, human. Particulars: Zobs>8. How it is done:
Construction of AbsorbArray Small Molecule Microarrays. Microarrays were constructed as previously reported^4. Briefly, a 1% agarose solution was poured onto a glass slide and dried on the benchtop. A 200 nL aliquot of 68 hit compounds (10 mM in DMSO) was pinned onto the array from a 384-well plate using Biomek NXP Laboratory Automation Workstation. Slides were then dried overnight to obtain a thin, invisible agarose layer. Slides were washed three times with 1×PBST^5 and then three times with nanopure water. Slides were dried completely in the air before RNA selection, completed by Two-Dimensional Combinatorial Screening (2DCS).
RNA Selection and Screening by 2DCS. The 3×2 RNA ILL was 5′-end ^32P-labeled as previously described^7 and 2DCS selections were completed as previously described 4. All oligonucleotides were folded as described in the “Solution-based Dye Displacement Assay” section. Small molecule microarrays were pre-equilibrated by 3 mL 1× AB2 for 5 min. After removing the pre-equilibration buffer, 5′-end labeled folded 3×2 RNA ILL (~50,000 cpm) was added in 3 mL 1× AB2 containing 1 mM MgCl2 in the presence of competitor oligonucleotides (100 μM each). The oligonucleotide solution was evenly distributed across the microarray surface with a custom-cut piece of Parafilnm. After incubating for 30 min at room temperature, the Parafilm was removed, and the slide was washed gently by submersion in 1× AB2 for 30 s. This washing step was repeated three additional times, and the array was dried on the benchtop for 1 h. […] To harvest and collect the bound RNAs from the ILL, 1 μL of nanopure water was added to each spot. After 30 s, the water drop was absorbed into agarose gel, hydrating it such that it could be excised with a toothpick. The RNAs were eluted from the agarose by simple incubation with water, and then treated with RNase-free DNase I. A unique barcode for each small molecule was installed by reverse transcription (RT). Barcoded RNAs were amplified by PCR, purified, and identified by next-generation sequencing (NGS) using an Ion Proton deep sequencer using PI chips (60-80 million reads) as previously described^2.

Take `CCOC(=O)C1=C(Nc2ccccc2)S/C(=C\c2ccc(OCCOCCOCCOCCNC(C)=O)c(O)c2)C1=O` [Compound 6]: the pre-miR-21 levels result in assay [1] was “had no effect”. The “enrichment of pre-miR-21 in RNase L immunoprecipitation” value in assay [2] is “not”. Take `CCOC(=O)C1=C(Nc2ccccc2)S/C(=C\c2ccc(O)c(OCCOCCOCCOCCNC(=O)NCCN3CCN(c4ccc5[nH]c(-c6c(N)c7c(F)cccc7[nH]c6=O)nc5c4)CC3)c2)C1=O` [Compound 7]: in assay [1], the pre-miR-21 levels result was “increasing pre-miR-21 levels”. Also, the “competition of FLT3 enrichment by probe 4” value in assay [3] is “competed off; also recorded: between that observed for 1 and 2”. In addition, the “enrichment of pre-miR-21 in RNase L immunoprecipitation” value in assay [2] is “not”. For `CCCNC(=O)NCCN1CCN(c2ccc3[nH]c(-c4c(N)c5c(F)cccc5[nH]c4=O)nc3c2)CC1` [Compound 8], the “competition of FLT3 enrichment by probe 4” value in assay [3] was “competed off”. Turning to `COc1ccc(NC(=O)[C@H](CCCCN)NC(=O)c2cc(NC(=O)[C@H](CCCCN)NC(=O)c3cc(NC(=O)[C@H](CCCCN)NC(=O)c4cc(NC(=O)[C@@H](N)CCCCN)ccc4OC)ccc3OC)ccc2OC)cc1C(N)=O` [Delparantag], the “number of binding RNA motifs” value in assay [4] is 284. On the same count and under the same terms, with `CN1c2ccccc2Sc2ccc(CC(=O)O)cc21` [Metiazinic Acid] the figure was 274; with `NCCCNc1ccc2c3c(nn2CCNCCO)-c2c(O)ccc(O)c2C(=O)c13` [Piroxantrone], 278.

The record behind these values is patent US12702715B2, “Targeted RNA degradation allows precision repurposing of protein-targeted small molecule medicines to RNA” (University of Florida Research Foundation, Incorporated, priority 2020, dated 2026).
